Test results reported in PMC11952222, “Development and comparison of single FLT3-inhibitors to dual FLT3/TAF1-inhibitors as an anti-leukemic approach” (PLOS One, 2025).
Several values for one entry are separate records, joined by “and”; a condition that tells them apart may be missing. Equal entries are not always repeated. Where two headings read alike, the source gives them in different places.

How the values were obtained:
[1] = biological target: T1, FLT3 (Homo sapiens, UniProt P36888); test: Eurofins/DiscoverX KdELECT, FLT3 kinase IC50; format: binding; conditions: 11-point 3-fold dilution, top concentration 10,000 nM
T1 construct: purchased Eurofins/DiscoverX
T1 sequence (P36888 27-993): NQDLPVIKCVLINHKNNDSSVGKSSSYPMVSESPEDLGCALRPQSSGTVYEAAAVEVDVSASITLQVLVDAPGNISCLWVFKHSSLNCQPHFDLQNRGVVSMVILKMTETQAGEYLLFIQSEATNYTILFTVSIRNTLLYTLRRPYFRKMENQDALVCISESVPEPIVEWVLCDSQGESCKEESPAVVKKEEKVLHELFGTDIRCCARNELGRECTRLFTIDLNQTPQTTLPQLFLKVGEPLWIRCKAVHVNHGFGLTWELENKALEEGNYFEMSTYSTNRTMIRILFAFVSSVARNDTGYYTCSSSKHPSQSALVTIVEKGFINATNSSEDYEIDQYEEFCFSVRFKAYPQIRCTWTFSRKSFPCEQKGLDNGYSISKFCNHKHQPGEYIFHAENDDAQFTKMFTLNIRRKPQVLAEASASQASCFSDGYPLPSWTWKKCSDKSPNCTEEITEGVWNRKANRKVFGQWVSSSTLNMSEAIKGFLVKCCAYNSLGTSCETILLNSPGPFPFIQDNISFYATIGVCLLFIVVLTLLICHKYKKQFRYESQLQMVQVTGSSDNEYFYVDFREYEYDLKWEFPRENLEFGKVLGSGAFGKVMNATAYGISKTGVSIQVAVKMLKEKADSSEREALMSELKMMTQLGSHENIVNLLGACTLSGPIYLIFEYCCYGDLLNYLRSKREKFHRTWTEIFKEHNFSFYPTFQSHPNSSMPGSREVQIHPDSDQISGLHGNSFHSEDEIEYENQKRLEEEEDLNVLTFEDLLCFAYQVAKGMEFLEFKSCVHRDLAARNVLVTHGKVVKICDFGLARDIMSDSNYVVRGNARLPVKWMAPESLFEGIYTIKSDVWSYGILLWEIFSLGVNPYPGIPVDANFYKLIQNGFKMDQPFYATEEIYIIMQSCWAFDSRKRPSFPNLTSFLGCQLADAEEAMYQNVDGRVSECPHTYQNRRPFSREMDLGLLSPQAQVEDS
Protocol: (§1) The 3i-compounds underwent activity testing against a panel of 32 bromodomains using the Eurofins/DiscoverX bromoMAX assay, with specific focus on TAF1(2) bromodomain assessed by the KdELECT assay. In a similar manner, kinase activity was evaluated using a panel of 97 kinase proteins using the Eurofins/DiscoverX scanELECT and KdELECT assays, with specific focus on FLT3 protein. An 11-point 3-fold serial dilution of each test compound was prepared in 100% DMSO at 100x final test concentration and subsequently diluted to final concentration (DMSO 1%). […] Percent control was calculated using the following formula: ((test compound signal – positive control signal)/ (negative control signal – positive control signal)) × 100.

[2] = biological target: T2, TAF1(2) (Homo sapiens, UniProt P21675); test: Eurofins/DiscoverX cell free bromodomain assay, percent control; format: binding; conditions: for per_control_1000nM TAF1(2): 1000 nM compound; for per_control_10000nM TAF1(2): 10000 nM compound
T2 construct: with specific focus on TAF1(2) bromodomain assessed by the KdELECT assay; purchased Eurofins/DiscoverX
T2 sequence (P21675 1519-1628 limits assumed): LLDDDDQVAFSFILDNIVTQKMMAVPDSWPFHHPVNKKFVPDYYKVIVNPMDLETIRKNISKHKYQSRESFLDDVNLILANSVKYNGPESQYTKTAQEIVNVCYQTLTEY
Protocol: as §1

[3] = biological target: T1, FLT3; test: Eurofins/DiscoverX cell free kinase assay, percent control; format: binding; conditions: for per_control_1000nM FLT3: 1000 nM compound; for per_control_10000nM FLT3: 10000 nM compound
Protocol: as §1
(§2) Fig 2 Results of 3i-compound series at concentrations of 1 µM and 10 µM in a cell free Eurofins/DiscoverX assay for kinase and bromodomain proteins. (A) Single-targeted compounds with tyrosine kinase activity but without bromodomain activity. (B) Dual-targeted compounds with both tyrosine kinase and bromodomain activity.

[4] = biological target: T3, FLT3_autoinhibited (Homo sapiens, UniProt P36888); test: as above; format: binding; conditions: for per_control_1000nM FLT3_autoinhibited: 1000 nM compound; for per_control_10000nM FLT3_autoinhibited: 10000 nM compound
T3 construct: purchased Eurofins/DiscoverX
T3 sequence (P36888 564-993 limits assumed): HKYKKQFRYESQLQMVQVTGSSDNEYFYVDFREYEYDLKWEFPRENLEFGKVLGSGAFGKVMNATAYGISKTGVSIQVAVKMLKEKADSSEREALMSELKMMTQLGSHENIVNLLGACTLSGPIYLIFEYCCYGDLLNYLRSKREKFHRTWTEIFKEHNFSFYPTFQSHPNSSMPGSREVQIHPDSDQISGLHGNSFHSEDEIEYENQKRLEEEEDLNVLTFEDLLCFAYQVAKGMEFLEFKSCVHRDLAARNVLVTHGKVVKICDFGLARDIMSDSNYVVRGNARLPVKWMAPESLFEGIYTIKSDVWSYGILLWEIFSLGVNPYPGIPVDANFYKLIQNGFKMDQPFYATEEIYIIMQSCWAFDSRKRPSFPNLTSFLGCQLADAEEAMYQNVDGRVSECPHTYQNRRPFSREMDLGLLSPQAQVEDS
Protocol: as §1, §2

[5] = biological target: T4, PDGFRB (Homo sapiens, UniProt P09619); test: as above; format: binding; conditions: for per_control_1000nM PDGFRB: 1000 nM compound; for per_control_10000nM PDGFRB: 10000 nM compound
T4 construct: purchased Eurofins/DiscoverX
Protocol: as §1, §2

[6] = tested on: MOLM13 cells; test: Cell viability, CellTiter Glo, MOLM13; format: cell-based; conditions: for IC50: 72h
Protocol: (§3) Drug sensitivity and resistance testing in MOLM13, DU4475, HDQP1, and IGROV1 cells was conducted at the Finnish Institute for Molecular Medicine (FIMM), University of Helsinki. In brief, the effects of compounds on cell viability and cell death were quantified with Cell-Titer Glo (Promega) and CellTox Green (Promega), respectively. Compounds or vehicle control were included in cell culture medium at described concentrations for 72h using an automated liquid dispenser in 384-well format. For KASUMI-1 experiments, cells were grown in 96-well plates and similarly incubated with compounds at indicated concentrations for 72h in RPMI + 10% FCS + Gentamicin, followed by lysis and quantification of cell viability with Cell-Titer Glo (Promega).
(§4) Raw values from viability and toxicity assays were normalized to DMSO and plotted to heat maps in R using pheatmap (RRID:SCR_016418). Dose-response curves were generated using the drc package in R [40]. In brief, nonlinear modelling was performed to calculate IC50 values for each compound where possible and resulting curves from drc and experimental values were plotted using ggplot2 (RRID:SCR_014601).

[7] = tested on: HDQP1 cells; test: Cell viability, CellTiter Glo, HDQP1; format: cell-based
Protocol: as §3, §4

[8] = tested on: IGROV1 cells; test: Cell viability, CellTiter Glo, IGROV1; format: cell-based
Protocol: as §3, §4

[9] = one independent experiment per value, read-out: MOLM13 IC50, individual dose-response curve (CellTiter Glo)
[10] = Homo sapiens, MOLM-13, 72 h, mean of n = 3 independent experiments, read-out: MOLM13 IC50 (CellTiter Glo)
[11] = 72h, mean of n = 3 independent experiments, read-out: HDQP1 IC50 (CellTiter Glo)
[12] = 72h, one independent experiment per value, read-out: HDQP1 IC50, individual dose-response curve (CellTiter Glo)
[13] = Homo sapiens, HDQ-P1, 72 h, one independent experiment per value, read-out: HDQP1 IC50, individual dose-response curve (CellTiter Glo)
[14] = 72h, one independent experiment per value, read-out: IGROV1 IC50, individual dose-response curve (CellTiter Glo)
[15] = Homo sapiens, IGROV-1, 72 h, mean of n = 3 independent experiments, read-out: IGROV1 IC50 (CellTiter Glo)
[16] = Homo sapiens, IGROV-1, 72 h, one independent experiment per value, read-out: IGROV1 IC50, individual dose-response curve (CellTiter Glo)

T4 sequence (P09619 33-1106): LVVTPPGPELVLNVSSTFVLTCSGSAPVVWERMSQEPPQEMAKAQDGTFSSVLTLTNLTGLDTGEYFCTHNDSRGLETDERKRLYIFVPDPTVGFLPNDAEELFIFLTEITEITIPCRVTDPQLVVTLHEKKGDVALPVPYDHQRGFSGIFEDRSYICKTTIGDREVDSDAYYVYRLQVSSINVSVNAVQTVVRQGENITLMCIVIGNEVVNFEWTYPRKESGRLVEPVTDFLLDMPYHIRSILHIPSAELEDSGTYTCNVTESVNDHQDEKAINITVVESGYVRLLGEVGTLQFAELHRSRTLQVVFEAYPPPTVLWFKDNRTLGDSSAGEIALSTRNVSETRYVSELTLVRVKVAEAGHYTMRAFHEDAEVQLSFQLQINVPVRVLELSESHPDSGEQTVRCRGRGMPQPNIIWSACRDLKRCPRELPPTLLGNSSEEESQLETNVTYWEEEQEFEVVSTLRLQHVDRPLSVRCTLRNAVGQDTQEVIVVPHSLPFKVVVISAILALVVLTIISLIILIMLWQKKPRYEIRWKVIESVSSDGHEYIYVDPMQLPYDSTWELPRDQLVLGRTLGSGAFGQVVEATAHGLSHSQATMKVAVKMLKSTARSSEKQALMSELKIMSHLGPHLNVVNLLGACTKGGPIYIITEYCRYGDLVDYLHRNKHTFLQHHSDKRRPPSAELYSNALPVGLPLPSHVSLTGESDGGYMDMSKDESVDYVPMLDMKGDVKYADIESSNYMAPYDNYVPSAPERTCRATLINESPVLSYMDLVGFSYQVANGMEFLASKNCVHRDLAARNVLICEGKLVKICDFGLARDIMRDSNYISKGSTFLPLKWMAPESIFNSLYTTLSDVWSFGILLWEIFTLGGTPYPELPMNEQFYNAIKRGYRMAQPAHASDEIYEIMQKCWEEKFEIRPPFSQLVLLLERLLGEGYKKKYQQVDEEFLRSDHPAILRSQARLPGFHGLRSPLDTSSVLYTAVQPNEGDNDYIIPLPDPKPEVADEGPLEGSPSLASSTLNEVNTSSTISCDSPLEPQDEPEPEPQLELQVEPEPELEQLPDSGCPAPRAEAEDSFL

IC50 [6, 10] [µM] | SMILES | IC50 [1] [µM] | per_control_1000nM TAF1(2) [2] [percent control] | per_control_10000nM TAF1(2) [2] [percent control] | per_control_1000nM FLT3 [3] [percent control] | per_control_10000nM FLT3 [3] [percent control] | per_control_1000nM FLT3_autoinhibited [4] [percent control] | per_control_10000nM FLT3_autoinhibited [4] [percent control] | per_control_1000nM PDGFRB [5] [percent control] | per_control_10000nM PDGFRB [5] [percent control] | IC50 [6, 9] | IC50 [7, 11] [µM] | IC50 [7, 12] | IC50 [7, 13] [µM] | IC50 [8, 14] | IC50 [8, 15] [µM] | IC50 [8, 16] [µM] | further results
0.121 | COc1ccc(-c2cc(NC(=O)c3ccc(C(C)(C)C)cc3)[nH]n2)cc1 [Compound 3i-1103] | < 1 | 21 | 2.6 | 0 | 0 | 1.8 | 0.4 | 0 | 0 | 0.0934 µM and 0.0807 µM and 0.19 µM | – | – | – | > 30 µM | – | 17.8 | –
0.94 | Cn1cc(-c2cc(NC(=O)c3ccc(C(C)(C)C)cc3)n[nH]2)ccc1=O [Compound 3i-1248, 4-(tert-butyl)-N-(5-(1-methyl-6-oxo-1,6-dihydropyridin-3-yl)-1H-pyrazol-3-yl)benzamide] | < 1 | 0.3 | 0.05 | 6.7 | 0.15 | 63 | 12 | 11 | 0.35 | 0.539 µM and 1.58 µM and 0.702 µM | > 10 | 21.1 µM and 22.1 µM | 18.8 | 10.5 µM and 7.7 µM | 10 | 11.8 | IC50 ([7]; 72h, mean of n = 3 independent experiments, listed as 1248, read-out: HDQP1 IC50 (CellTiter Glo)): 20.7 µM
– | CC(C)(C)c1ccc(C(=O)Nc2cc(-c3ccccc3)n[nH]2)cc1 [Compound 3i-1247, 4-(tert-butyl)-N-(3-phenyl-1H-pyrazol-5-yl)benzamide] | 0.0015 | 97 | 78 | 12 | 0 | 1.1 | 0 | 0 | 0 | 0.0387 µM and 0.137 µM and 0.0424 µM | – | > 30 µM | – | 3.5 µM and 3.8 µM and 2.5 µM | – | – | IC50 ([6]; mean of n = 3 independent experiments, read-out: MOLM13 IC50 (CellTiter Glo)): 0.0726 µM; anti-proliferative activity in MOLM13 cells ([6]; comparison within the compound set): most potent compound overall; IC50 ([8]; 72h, mean of n = 3 independent experiments, read-out: IGROV1 IC50 (CellTiter Glo)): 3.3 µM

SMILES | IC50 [6, 10] [µM] | IC50 [1] [µM] | per_control_1000nM TAF1(2) [2] [percent control] | per_control_10000nM TAF1(2) [2] [percent control] | per_control_1000nM FLT3 [3] [percent control] | per_control_10000nM FLT3 [3] [percent control] | per_control_1000nM FLT3_autoinhibited [4] [percent control] | per_control_10000nM FLT3_autoinhibited [4] [percent control] | per_control_1000nM PDGFRB [5] [percent control] | per_control_10000nM PDGFRB [5] [percent control] | IC50 [6, 9] | IC50 [7, 11] [µM] | IC50 [7, 12] | IC50 [7, 13] [µM] | IC50 [8, 14] | IC50 [8, 15] [µM] | IC50 [8, 16] [µM] | further results
Cc1cc(-c2cc(NC(=O)c3ccc(C(C)(C)C)cc3)[nH]n2)ccn1 [Compound 3i-1246, 4-(tert-butyl)-N-(3-(2-methylpyridin-4-yl)-1H-pyrazol-5-yl)benzamide] | 0.293 | 0.018 | 4.1 | 3.6 | 0 | 0.2 | 0 | 1 | 0 | 0 | 0.183 µM and 0.423 µM and 0.272 µM | > 10 | 10.5 µM and 19.5 µM | 10.1 | 11.6 µM and 8.8 µM | 10.9 | 12.1 | IC50 ([7]; Homo sapiens, HDQ-P1, 72 h, mean of n = 3 independent experiments, read-out: HDQP1 IC50 (CellTiter Glo)): 13.4 µM
